Source: ChEMBL document CHEMBL5728485, “Biaryloxy derivatives as TTX-S blockers” (2021)

target: Sodium channel protein type 9 subunit alpha (Homo sapiens, UniProt Q15858); assay: EFS-FRET Assay: This screen is used to determine the effects of compounds on human Nav1.7 channels, utilizing electrical field stimulation (EFS) system in 96-well plate format on FDSS (Hamamatsu Photonics) platform. The changes of membrane potential are monitored with FRET dye pair, DiSBAC2(3) and PTS 18.
Sequence (Q15858 whole entry): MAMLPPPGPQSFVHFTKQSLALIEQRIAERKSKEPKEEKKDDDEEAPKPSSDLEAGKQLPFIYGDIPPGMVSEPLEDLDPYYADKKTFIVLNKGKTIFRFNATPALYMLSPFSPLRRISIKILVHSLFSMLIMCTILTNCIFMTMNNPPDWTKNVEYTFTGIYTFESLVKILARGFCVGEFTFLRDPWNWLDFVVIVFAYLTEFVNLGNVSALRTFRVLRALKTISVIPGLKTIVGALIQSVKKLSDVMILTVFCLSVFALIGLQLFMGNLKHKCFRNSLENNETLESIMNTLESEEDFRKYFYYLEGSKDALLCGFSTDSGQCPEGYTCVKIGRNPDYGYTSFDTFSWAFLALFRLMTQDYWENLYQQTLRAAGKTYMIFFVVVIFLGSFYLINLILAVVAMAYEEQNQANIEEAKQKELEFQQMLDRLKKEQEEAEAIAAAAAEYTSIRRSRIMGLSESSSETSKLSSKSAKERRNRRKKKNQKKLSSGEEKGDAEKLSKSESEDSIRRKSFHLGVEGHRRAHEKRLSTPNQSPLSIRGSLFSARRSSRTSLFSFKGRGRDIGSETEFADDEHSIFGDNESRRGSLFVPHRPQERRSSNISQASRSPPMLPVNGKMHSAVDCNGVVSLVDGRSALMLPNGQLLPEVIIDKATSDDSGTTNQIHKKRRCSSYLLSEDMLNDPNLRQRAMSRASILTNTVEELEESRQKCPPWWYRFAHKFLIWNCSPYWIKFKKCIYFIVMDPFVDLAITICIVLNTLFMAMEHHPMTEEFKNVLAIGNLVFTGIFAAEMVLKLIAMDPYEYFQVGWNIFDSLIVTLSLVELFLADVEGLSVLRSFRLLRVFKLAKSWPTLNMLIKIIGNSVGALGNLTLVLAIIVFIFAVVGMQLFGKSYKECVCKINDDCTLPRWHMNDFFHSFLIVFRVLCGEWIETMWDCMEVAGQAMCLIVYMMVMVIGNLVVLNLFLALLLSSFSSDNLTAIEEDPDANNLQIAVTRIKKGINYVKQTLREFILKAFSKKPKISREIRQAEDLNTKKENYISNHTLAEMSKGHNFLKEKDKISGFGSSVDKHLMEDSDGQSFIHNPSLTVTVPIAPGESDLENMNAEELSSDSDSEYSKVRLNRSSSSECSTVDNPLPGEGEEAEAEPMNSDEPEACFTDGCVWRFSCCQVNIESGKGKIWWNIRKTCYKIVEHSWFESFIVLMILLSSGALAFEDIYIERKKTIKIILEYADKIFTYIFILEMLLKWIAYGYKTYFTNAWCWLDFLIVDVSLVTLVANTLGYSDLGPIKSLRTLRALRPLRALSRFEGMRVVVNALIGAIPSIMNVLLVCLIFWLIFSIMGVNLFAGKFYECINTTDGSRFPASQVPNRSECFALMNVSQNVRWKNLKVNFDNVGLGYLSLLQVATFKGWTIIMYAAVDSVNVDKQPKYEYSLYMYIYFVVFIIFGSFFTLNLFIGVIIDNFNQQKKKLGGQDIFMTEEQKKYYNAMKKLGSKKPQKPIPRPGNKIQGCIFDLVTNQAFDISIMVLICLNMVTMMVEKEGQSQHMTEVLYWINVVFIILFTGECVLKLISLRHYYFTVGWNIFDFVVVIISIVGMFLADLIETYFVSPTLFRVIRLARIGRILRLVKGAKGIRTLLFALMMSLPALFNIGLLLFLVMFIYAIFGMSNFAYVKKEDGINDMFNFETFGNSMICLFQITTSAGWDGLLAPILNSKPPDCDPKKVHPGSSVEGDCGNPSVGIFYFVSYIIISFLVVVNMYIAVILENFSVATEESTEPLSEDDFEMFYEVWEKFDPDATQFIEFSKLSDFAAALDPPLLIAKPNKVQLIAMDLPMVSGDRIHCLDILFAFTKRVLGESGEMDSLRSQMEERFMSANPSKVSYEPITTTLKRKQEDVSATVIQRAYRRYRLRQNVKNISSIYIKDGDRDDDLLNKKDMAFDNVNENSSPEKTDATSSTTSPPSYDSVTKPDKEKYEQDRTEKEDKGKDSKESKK

Compound	IC50
O=C(NS(=O)(=O)C1CC1)c1ccc(COc2cccc(-c3ccc(OCC4CCOCC4)nc3)c2)cc1	< 500 nM
CN(C)C(=O)c1cc(-c2cccc(OCc3ccc(C(=O)NS(C)(=O)=O)cc3F)c2)ccc1OCC1CC1	< 500 nM
O=C(NS(=O)(=O)c1cccs1)c1cc(Cl)c(COc2cccc(-c3ccc(OCC4CC4)nc3)c2)cc1F	< 500 nM

Further lines, results first:

IC50	Compound
< 500 nM	CS(=O)(=O)NC(=O)c1ccc(COc2cc(F)cc(-c3cncc(OCC4CC4)n3)c2)cc1
< 500 nM	Cc1nc(OCC2CC2)ccc1-c1cccc(OCc2ccc(C(=O)NS(C)(=O)=O)cc2)c1
< 500 nM	CS(=O)(=O)NC(=O)c1ccc(COc2cccc(-c3cnc(OCC4CC4)nc3)c2)c(F)c1
